Holding throughout (type): cell-based
One data set deals with HBsAg. Nature of the data set: PHH HBV natural infection assay, HBsAg (alphalisa). The protocol: (§1) Detailed procedures regarding primary human hepatocyte (PHH) HBV natural infection assay are described as below. One tube of frozen PHH (10 million cells) is thawed in 37° C. water bath and then transferred to 20 mL of PHH thawing medium (Sigma, InVitroGRO HT Medium, Cat. S03319) with gently mixing. The cells were then centrifuged at […] for 5 min, the supernatant was discarded and the tube was refilled with 25 mL of PHH plating medium (Sigma, InVitroGRO CP Medium, Cat. S03317). The tube was shaken very gently to re-suspend all cells, and then 50 μl of cells were transferred to each well 384-well collagen I coated plate with appropriate liquid handling equipment, e.g. Integra VIAFLO384 or Agilent Bravo. The cells were then cultured for 24 hours in a cell incubator. For HBV infection, after PHH attachment on the culture plate, the plating medium was removed and replenished with PHH culture medium containing HBV virus. The PHH culture medium was prepared with Dulbecco's Modified Eagle Medium (DMEM)/F12 (1:1 in volume ratio) containing 10% fetal bovine serum (Gibco, Cat. 10099141), 5 ng/mL human epidermal growth factor (Gibco, Cat.PHG0311L), 20 ng/mL dexamethasone (Sigma, Cat.D4902-100 mg), 250 ng/mL human recombinant insulin (Gibco, Cat.41400045) and 100 U/mL penicillin. HBV virus at 200 genome equivalent (GE) per cell with 4% PEG8000 (Sigma, Cat.P1458) containing culture medium were added to the PHH culture medium for infection. The cells were then cultured for 24 hours in cell incubator. Then the cell culture supernatant was removed. The HBV-infected PHH were cultured with sandwich culture method with PHH culture medium containing 1% DMSO and 0.25 mg/mL matrix gel for 72 hours. The supernatant was then refreshed with PHH culture medium containing different concentrations of testing compounds for two times with 72-hour interval. At the end of treatment, the supernatant was collected for viral markers measurements, including HBsAg, HBeAg, HBV DNA and cytotoxicity. HBsAg and HBeAg were detected using alphalisa method using their specific antibodies. For HBV DNA detection, HBV DNA Quantitative Fluorescence Diagnostic Kit (Sansure Biotech Inc.) was used following the manufacture's protocol. Cytotoxicity was determined using Cell Counting Kit-8 (CCK8, Dojindo Molecular Technologies, Inc.).
(§2) The compounds of the present invention were tested for their capacity to inhibit HBsAg and HBeAg as described herein.
Background: Bead proximity is the source of the signal in Alpha formats.

The next data set relates to HBeAg. In words: PHH HBV natural infection assay, HBeAg (alphalisa). The protocol:
as §1, §2

The nature of data set [1]: PHH natural infection assay, cytotoxicity (Cell Counting Kit-8). Conditions: human, HBV-infected primary human hepatocytes, CCK8, end of treatment. Here is the method:
as §1
Background: Formazan colour is commonly taken as a measure of viable cells.

[2] abbreviates: Hepatitis B virus, Hepatocyte, 72 h, read-out: HBsAg IC50, HBV-infected primary human hepatocytes, supernatant, compound medium refreshed two times with 72-hour interval.
Where [3] appears, read: Hepatitis B virus, Hepatocyte, 72 h, read-out: HbeAg IC50, HBV-infected primary human hepatocytes, supernatant, compound medium refreshed two times with 72-hour interval.

Where two headings read alike, the source gives them in different places.

What is called IC50 is the point on the concentration scale where inhibition reaches its midpoint. By CC50 is commonly meant the concentration that lowers cell viability or growth by half. Low readings indicate greater toxicity to the cells, high ones lower toxicity to the cells. On to `NS(=O)(=O)CCc1ccc(C(=O)NC2CC3(C2)CC(c2nc4cc(Cl)ccc4o2)C3)o1` (stereo not drawn) [Example 34, N-[6-(5-chloro-1,3-benzoxazol-2-yl)spiro[3.3]heptan-2-yl]-5-(2-sulfamoylethyl)furan-2-carboxamide], for which the figures for the IC50 with HBsAg (setting [2]) and with HBeAg (setting [3]) were 8.78 µM and 5.84 µM, respectively. Further, the CC50 at 144 h in data set [1] is above 100 µM.
In the same order, the values of `O=C(NC1CC2(C1)CC(c1nc3cc(Cl)ccc3o1)C2)c1ccc(S(=O)(=O)NC(=O)C2CCCC2)o1` (stereo not drawn) [Example 81, N-[6-(5-chloro-1,3-benzoxazol-2-yl)spiro[3.3]heptan-2-yl]-5-(cyclopentanecarbonylsulfamoyl)furan-2-carboxamide] are 1.74 µM, 0.796 µM and 11.3 µM.
The corresponding values for `N#Cc1ccc(C(=O)NC2CC3(C2)CC(c2nc4cc(Cl)ccc4o2)C3)o1` (stereo not drawn) [Example 2, N-[6-(5-chloro-1,3-benzoxazol-2-yl)spiro[3.3]heptan-2-yl]-5-cyano-furan-2-carboxamide] are 5.86 µM, 4.06 µM and 61.6 µM.
In the same order, the values of `CCS(=O)(=O)c1oc(C(=O)NC2CC3(C2)CC(c2nc4cc(Cl)ccc4o2)C3)cc1Br` (stereo not drawn) [Example 36, 4-bromo-N-[6-(5-chloro-1,3-benzoxazol-2-yl)spiro[3.3]heptan-2-yl]-5-ethylsulfonyl-furan-2-carboxamide] are 0.885 µM, 0.815 µM and above 100 µM.
As to `N=S(=O)(c1ccc(C(=O)NC2CC3(C2)CC(c2nc4cc(Cl)cnc4o2)C3)o1)C1CC1` (single isomer, unassigned) [Example 64-a, N-[6-(6-chlorooxazolo[5,4-b]pyridin-2-yl)spiro[3.3]heptan-2-yl]-5-(cyclopropylsulfonimidoyl)furan-2-carboxamide], the IC50 in the data set on HBsAg (read-out: HBsAg IC50, HBV-infected primary human hepatocytes, supernatant, compound medium refreshed two times with 72-hour interval) was 8.45 µM; in the data set on HBeAg (read-out: HbeAg IC50, HBV-infected primary human hepatocytes, supernatant, compound medium refreshed two times with 72-hour interval), 4.81 µM. For the same molecule, the CC50 at 144 h in data set [1] was above 10 µM.
In the case of `O=C(NC1CC2(C1)CC(c1nc3cc(Cl)ccc3o1)C2)c1ccc(C(=O)C2CC2)o1` (stereo not drawn) [Example 10, N-[6-(5-chloro-1,3-benzoxazol-2-yl)spiro[3.3]heptan-2-yl]-5-(cyclopropanecarbonyl)furan-2-carboxamide], the figures for the IC50 in the data set on HBsAg (setting [2]) and in the data set with HBeAg (setting [3]) were 3.35 µM and 2.94 µM, respectively. The CC50 at 144 h in data set [1] was determined as 96.1 µM.
The corresponding values for `O=C(NC1CC2(C1)CC(c1nc3cc(Cl)ccc3o1)C2)c1ccc([S+]([O-])CC2CC2)o1` (stereo not drawn) [Example 19, N-[6-(5-chloro-1,3-benzoxazol-2-yl)spiro[3.3]heptan-2-yl]-5-(cyclopropylmethylsulfinyl)furan-2-carboxamide] are 0.036 µM, 0.045 µM and 94.5 µM.
As to `N=S(=O)(CC1CC1)c1ccc(C(=O)NC2CC3(C2)CC(c2nc4cc(Cl)ccc4o2)C3)o1` (stereo not drawn) [Example 54, N-[6-(5-chloro-1,3-benzoxazol-2-yl)spiro[3.3]heptan-2-yl]-5-(cyclopropylmethylsulfonimidoyl)furan-2-carboxamide], the IC50 amounted to 0.47 µM with HBsAg (setting [2]) and 0.542 µM in the data set on HBeAg (setting [3]). Further, half-maximal cytotoxicity in data set [1] (CC50 at 144 h) was put at 88.8 µM.
In the same order, the values of `NC(=O)c1ccc(C(=O)NC2CC3(C2)CC(c2nc4cc(Cl)ccc4o2)C3)o1` (stereo not drawn) [Example 11, N2-[6-(5-Chloro-1,3-benzoxazol-2-yl)spiro[3.3]heptan-2-yl]furan-2,5-dicarboxamide] are 5.88 µM, 5.22 µM and above 10 µM.
The corresponding values for `O=C(NC1CC2(C1)CC(c1nc3cc(Cl)ccc3o1)C2)c1cc(Br)co1` (stereo not drawn) [Example 4, 4-bromo-N-[6-(5-chloro-1,3-benzoxazol-2-yl)spiro[3.3]heptan-2-yl]furan-2-carboxamide] are 5.57 µM, 2.94 µM and 56 µM.
On to `O=C(N[C@H]1CC2(C1)C[C@H](c1nc3cc(Cl)ccc3o1)C2)c1ccc(S(=O)(=O)NC(=O)C23CC(C2)C3)o1` (single isomer, unassigned) [Example 76, (Sa)-5-(bicyclo[1.1.1]pentane-1-carbonylsulfamoyl)-N-[6-(5-chloro-1,3-benzoxazol-2-yl)spiro[3.3]heptan-2-yl]furan-2-carboxamide, or (Ra)-5-(bicyclo[1.1.1]pentane-1-carbonylsulfamoyl)-N-[6-(5-chloro-1,3-benzoxazol-2-yl)spiro[3.3]heptan-2-yl]furan-2-carboxamide], for which the IC50 with HBsAg (setting [2]) was 2.84 µM; in the data set with HBeAg (setting [3]), 1.99 µM. Also, the CC50 at 144 h in data set [1] is above 10 µM.
For `NS(=O)(=O)c1ccc(C(=O)NC2CC3(C2)CC(c2nc4cc(Cl)ccc4o2)C3)o1` (stereo not drawn) [Example 29, N-[6-(5-chloro-1,3-benzoxazol-2-yl)spiro[3.3]heptan-2-yl]-5-sulfamoyl-furan-2-carboxamide], the IC50 in the data set on HBsAg (setting [2]) was 0.534 µM; in the data set with HBeAg (setting [3]), 0.509 µM. Also, in data set [1], the CC50 at 144 h is 94.2 µM.
Consider `O=C(NC1CC2(C1)CC(c1nc3cc(Cl)ccc3o1)C2)c1ccc(SC(F)(F)F)o1` (stereo not drawn) [Example 41, N-[6-(5-chloro-1,3-benzoxazol-2-yl)spiro[3.3]heptan-2-yl]-5-(trifluoromethylsulfanyl)furan-2-carboxamide], for which the figures for the IC50 in the data set on HBsAg (setting [2]) and with HBeAg (setting [3]) were 8.47 µM and 6.62 µM, respectively. The CC50 at 144 h in data set [1] is above 100 µM.
For the molecule `COC(=O)CCC(=O)NS(=O)(=O)c1ccc(C(=O)N[C@H]2CC3(C2)C[C@H](c2nc4cc(Cl)ccc4o2)C3)o1` (single isomer, unassigned) [Example 75, (Sa)-methyl 4-[[5-[[6-(5-chloro-1,3-benzoxazol-2-yl)spiro[3.3]heptan-2-yl]carbamoyl]-2-furyl]sulfonylamino]-4-oxo-butanoate, or (Ra)-methyl 4-[[5-[[6-(5-chloro-1,3-benzoxazol-2-yl)spiro[3.3]heptan-2-yl]carbamoyl]-2-furyl]sulfonylamino]-4-oxo-butanoate], the IC50 with HBsAg (setting [2]) was 2.49 µM; with HBeAg (setting [3]), 1.69 µM. Further, in data set [1], the CC50 at 144 h is above 10 µM.
As for `CS(=N)(=O)c1ccc(C(=O)NC2CC3(C2)CC(c2nc4cc(Cl)ccc4o2)C3)o1` (stereo not drawn) [Example 52, N-[6-(5-chloro-1,3-benzoxazol-2-yl)spiro[3.3]heptan-2-yl]-5-(methylsulfonimidoyl)furan-2-carboxamide], the results for the IC50 in the data set on HBsAg (setting [2]) and with HBeAg (setting [3]) were 1.7 µM and 1.2 µM, respectively. For the same molecule, in data set [1], the midpoint of cytotoxicity, the CC50 at 144 h, lay at 72 µM.
For `C[S+]([O-])c1ccc(C(=O)NC2CC3(C2)CC(c2nc4cc(Cl)ccc4o2)C3)o1` (stereo not drawn) [Example 14, N-[6-(5-chloro-1,3-benzoxazol-2-yl)spiro[3.3]heptan-2-yl]-5-methylsulfinyl-furan-2-carboxamide], the IC50 was determined as 1.61 µM in the data set on HBsAg (setting [2]) and 0.854 µM in the data set on HBeAg (setting [3]). This molecule returned a CC50 at 144 h in data set [1] of 76.5 µM.
In the case of `CS(=O)(=O)Cc1ccc(C(=O)NC2CC3(C2)CC(c2nc4cc(Cl)ccc4o2)C3)o1` (stereo not drawn) [Example 30, N-[6-(5-chloro-1,3-benzoxazol-2-yl)spiro[3.3]heptan-2-yl]-5-(methylsulfonylmethyl)furan-2-carboxamide], the IC50 in the data set with HBsAg (setting [2]) came to 3.97 µM; in the data set on HBeAg (setting [3]) it was 2.17 µM. For the same molecule, in data set [1], the CC50 at 144 h is above 100 µM.

The values are drawn from patent US20230286969A1, “AROMATIC SPIRO RING AMIDE DERIVATIVES FOR THE TREATMENT AND PROPHYLAXIS OF HEPATITIS B VIRUS INFECTION” (Hoffmann-La Roche Inc., priority 2020, published 2023).
